From patent US6514971B1, “Cinnoline derivatives and use as medicine” (Zeneca Limited, priority 1996, dated 2003)
Structures can show the parent of a compound that is named as a salt.

Columns and labels:
[1] = biological target: T1, epidermal growth factor (EGF) receptor tyrosine kinase (Homo sapiens, UniProt P00533); test: In vitro receptor tyrosine kinase inhibition test (EGF receptor); type: biochemical
T1 construct: made in house; host or cells: insect cells (baculovirus, as for Flt)
From the text: (§1) (a) In Vitro Receptor Tyrosine Kinase Inhibition Test
This assay determines the ability of a test compound to inhibit tyrosine kinase activity. DNA encoding VEGF or epidermal growth factor (EGF) receptor cytoplasmic domains may be obtained by total gene synthesis (Edwards M, International Biotechnology Lab 5(3), 19-25, 1987) or by cloning. These may then be expressed in a suitable expression system to obtain polypeptide with tyrosine kinase activity. […] In the case of the VEGF receptor Flt (Genbank accession number X51602), a 1.7 kb DNA fragment encoding most of the cytoplasmic domain, commencing with methionine 783 and including the termination codon, described by Shibuya et al (Oncogene, 1990, 5: 519-524), was isolated from cDNA and cloned into a baculovirus transplacement vector (for example pAcYM1 (see The Baculovirus Expression System: A Laboratory Guide, L. A. King and R. D. Possee, Chapman and Hall, 1992) or pAc360 or pBlueBacHis (available from Invitrogen Corporation)). This recombinant construct was co-transfected into insect cells (for example Spodoptera frugiperda 21 (Sf21)) with viral DNA (eg Pharmingen BaculoGold) to prepare recombinant baculovirus. (Details of the methods for the assembly of recombinant DNA molecules and the preparation and use of recombinant baculovirus can be found in standard texts for example Sambrook et al, 1989. Molecular cloning—A Laboratory Manual, 2nd edition, Cold Spring Harbour Laboratory Press and O'Reilly et al, 1992, Baculovirus Expression Vectors—A Laboratory Manual. W. H. Freeman and Co. New York). For other tyrosine kinases for use in assays, cytoplasmic fragments starting from methionine 806 (KDR, Genbank accession number L04947) and methionine 668 (EGF receptor, Genbank accession number X00588) may be cloned and expressed in a similar manner.
For expression of cFlt tyrosine kinase activity, Sf21 cells were infected with plaque-pure cFlt recombinant virus at a multiplicity of infection of 3 and harvested 48 hours later. Harvested cells were washed with ice cold phosphate buffered saline solution (PBS) (10 mM sodium phosphate pH7.4, 138 mM NaCl, 2.7 mM KCl) then resuspended in ice cold HNTG/PMSF (20 mM Hepes pH7.5, 150 mM NaCl, 10% v/v glycerol, 1% v/v Triton X100. 1.5 mM MgCl2, 1 mM ethylene glycol-bis(βaminoethyl ether) N,N,N′,N′-tetraacetic acid (EGTA), 1 mM PMSF (phenylmethylsulphonyl fluoride); the PMSF is added just before use from a freshly-prepared 100 mM solution in methanol) using 1 ml HNTG/PMSF per 10 million cells. The suspension was centrifuged for 10 minutes at 13.000 rpm at 4° C., the supernatant (enzyme stock) was removed and stored in aliquots at −70° C. Each new batch of stock enzyme was titrated in the assay by dilution with enzyme diluent (100 mM Hepes pH 7.4, 0.2 mM Na3VO4, 0.1% v/v Triton X100, 0.2 mM dithiothreitol). For a typical batch, stock enzyme is diluted 1 in 2000 with enzyme diluent and 50 μl of dilute enzyme is used for each assay well.
(§2) A stock of substrate solution was prepared from a random copolymer containing tyrosine, for example Poly (Glu, Ala, Tyr) 6:3:1 (Sigma P3899), stored as 1 mg/ml stock in PBS at −20° C. and diluted 1 in 500 with PBS for plate coating.
(§3) On the day before the assay 100 μl of diluted substrate solution was dispensed into all wells of assay plates (Nunc maxisorp 96-well immunoplates) which were sealed and left overnight at 4° C.
(§4) On the day of the assay the substrate solution was discarded and the assay plate wells were washed once with PBST (PBS containing 0.05% v/v Tween 20) and once with 50 mM Hepes pH7.4.
Test compounds were diluted with 10% dimethylsulphoxide (DMSO) and 25 μl of diluted compound was transferred to wells in the washed assay plates. “Total” control wells contained 10% DMSO instead of compound. Twenty five microliters of 40 mM MnCl2 containing 8 μM adenosine-5′-triphosphate (ATP) was added to all test wells except “blank” control wells which contained MnCl2 without ATP. […]

[2] = biological target: T2, VEGF receptor tyrosine kinase (Homo sapiens, UniProt P17948); test: In vitro receptor tyrosine kinase inhibition test (VEGF receptor); type: biochemical
T2 construct: encoding most of the cytoplasmic domain, commencing with methionine 783 and including the termination codon; made in house; host or cells: Spodoptera frugiperda Sf21 insect cells (baculovirus); cleared Triton X100 lysate used as enzyme stock
T2 sequence (P17948 781-1338 limits assumed): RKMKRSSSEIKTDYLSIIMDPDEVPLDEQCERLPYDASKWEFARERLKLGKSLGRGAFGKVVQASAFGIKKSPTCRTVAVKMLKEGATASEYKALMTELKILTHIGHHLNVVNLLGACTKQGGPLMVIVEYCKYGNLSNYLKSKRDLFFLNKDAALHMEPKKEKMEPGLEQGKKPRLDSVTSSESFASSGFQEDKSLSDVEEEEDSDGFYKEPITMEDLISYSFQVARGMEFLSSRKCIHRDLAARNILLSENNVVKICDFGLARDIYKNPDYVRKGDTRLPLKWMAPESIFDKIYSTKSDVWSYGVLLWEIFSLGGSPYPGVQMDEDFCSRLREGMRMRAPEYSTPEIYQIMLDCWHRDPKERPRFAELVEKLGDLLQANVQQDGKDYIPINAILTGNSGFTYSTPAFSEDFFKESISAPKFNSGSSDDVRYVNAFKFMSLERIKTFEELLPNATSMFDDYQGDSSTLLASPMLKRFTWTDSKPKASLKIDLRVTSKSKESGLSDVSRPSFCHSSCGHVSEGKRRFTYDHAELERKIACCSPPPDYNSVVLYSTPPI
From the text: as §1
This assay determines the ability of a test compound to inhibit tyrosine kinase activity. […] These may then be expressed in a suitable expression system to obtain polypeptide with tyrosine kinase activity. […] This recombinant construct was co-transfected into insect cells (for example Spodoptera frugiperda 21 (Sf21)) with viral DNA (eg Pharmingen BaculoGold) to prepare recombinant baculovirus.
For expression of cFlt tyrosine kinase activity, Sf21 cells were infected with plaque-pure cFlt recombinant virus at a multiplicity of infection of 3 and harvested 48 hours later. […] The suspension was centrifuged for 10 minutes at 13.000 rpm at 4° C., the supernatant (enzyme stock) was removed and stored in aliquots at −70° C. Each new batch of stock enzyme was titrated in the assay by dilution with enzyme diluent (100 mM Hepes pH 7.4, 0.2 mM Na3VO4, 0.1% v/v Triton X100, 0.2 mM dithiothreitol). For a typical batch, stock enzyme is diluted 1 in 2000 with enzyme diluent and 50 μl of dilute enzyme is used for each assay well.
as §2, §3, §4
Test compounds were diluted with 10% dimethylsulphoxide (DMSO) and 25 μl of diluted compound was transferred to wells in the washed assay plates. “Total” control wells contained 10% DMSO instead of compound. Twenty five microliters of 40 mM MnCl2 containing 8 μM adenosine-5′-triphosphate (ATP) was added to all test wells except “blank” control wells which contained MnCl2 without ATP. To start the reactions 50 μl of freshly diluted enzyme was added to each well and the plates were incubated at room temperature for 20 minutes. The liquid was then discarded and the wells were washed twice with PBST. […] Plates were then incubated for 20-60 minutes at room temperature until the optical density value of the “total” control wells, measured at 405 nm using a plate reading spectrophotometer, was approximately 1.0.

T1 sequence (P00533 669-1210 limits assumed): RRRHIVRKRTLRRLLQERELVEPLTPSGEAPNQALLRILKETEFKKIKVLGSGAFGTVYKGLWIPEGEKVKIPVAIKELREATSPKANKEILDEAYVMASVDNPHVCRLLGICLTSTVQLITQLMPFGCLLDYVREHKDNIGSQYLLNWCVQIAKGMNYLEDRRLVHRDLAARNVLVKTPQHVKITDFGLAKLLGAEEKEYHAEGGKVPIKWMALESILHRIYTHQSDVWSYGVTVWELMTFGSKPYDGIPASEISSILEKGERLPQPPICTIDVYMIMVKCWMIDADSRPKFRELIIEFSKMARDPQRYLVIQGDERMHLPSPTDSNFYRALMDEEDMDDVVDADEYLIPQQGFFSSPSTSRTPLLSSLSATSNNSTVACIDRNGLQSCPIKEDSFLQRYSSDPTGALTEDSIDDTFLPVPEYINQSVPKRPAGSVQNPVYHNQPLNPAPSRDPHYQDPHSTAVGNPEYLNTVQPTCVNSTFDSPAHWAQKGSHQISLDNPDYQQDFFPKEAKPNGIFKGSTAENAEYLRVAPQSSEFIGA

| melting point [°C] | activity against epidermal growth factor (EGF) receptor tyrosine kinase [1] | activity against VEGF receptor tyrosine kinase [2] | SMILES |
| --- | --- | --- | --- |
| 267 to 273 |  |  | COCCOc1cc2nncc(Oc3cc(O)c(C)cc3F)c2cc1OC [Example 20, 4-(2-fluoro-5-hydroxy-4-methylphenoxy)-6-methoxy-7-(2-methoxyethoxy)cinnoline] |
| 218 to 225 |  |  | COc1cc2c(Nc3cc(O)c(Cl)cc3F)cnnc2cc1OCCCN1CCOCC1 (as salt: hydrochloride) [Example 12, 4-(4-chloro-2-fluoro-5-hydroxyanilino)-6-methoxy-7-(3-morpholinopropoxy)cinnoline] |
|  | lack of significant activity | good activity | COCCOc1cc2nncc(Nc3cc(O)c(C)cc3F)c2cc1OC [4-(2-fluoro-5-hydroxy-4-methylanilino)-6-methoxy-7-(2-methoxyethoxy)cinnoline] |
|  | lack of significant activity | good activity | COc1cc2c(Nc3cc(O)c(C)cc3F)cnnc2cc1OCCCN1CCOCC1 [Example 15, 4-(2-fluoro-5-hydroxy-4-methylanilino)-6-metboxy-7-(3-morpholinopropoxy)cinnoline] |
| 251 to 253 |  |  | COc1cc2nncc(Nc3cc(O)c(C)cc3F)c2cc1OC (as salt: hydrochloride) [Example 21, 4-(2-fluoro-5-hydroxy-4-methylanilino)-6,7-dimethoxycinnoline] |
|  | lack of significant activity | good activity | COc1cc2c(Nc3cc(O)c(C)cc3F)cnnc2cc1OCc1nccn1C [4-(2-fluoro-5-hydroxy-4-methylanilino)-6-methoxy-7-[(1-methylimidazol-2-yl)methoxy]cinnoline] |
| 250 to 256 |  |  | COCCOCCOc1cc2nncc(Nc3cc(O)c(C)cc3F)c2cc1OC (as salt: hydrochloride) [Example 23, 4-(2-fluoro-5-hydroxy-4-methylanilino)-6-methoxy-7-[2-(2-methoxyethoxy)ethoxy]cinnoline] |
| 240 to 245 |  |  | COc1cc2c(Nc3cc(O)c(Cl)cc3F)cnnc2cc1OCCCN1CCCC1 (as salt: hydrochloride) [Example 13, 4-(4-chloro-2-fluoro-5-hydroxyanilino)-6-methoxy-7-(3-pyrrolidinopropoxy)cinnoline] |
|  | lack of significant activity | good activity | COCCOc1cc2nncc(Nc3cc(O)c(Cl)cc3F)c2cc1OC [Example 8, 4-(4-chloro-2-fluoro-5-hydroxyanilino)-6-methoxy-7-(2-methoxyethoxy)cinnoline] |
| 280 to 284 |  |  | COc1cc2c(Nc3cc(O)c(Cl)cc3F)cnnc2cc1OCc1ccccc1 (as salt: hydrochloride) [Example 6, 7-benzyloxy-4-(4-chloro-2-fluoro-5-hydroxyanilino)-6-methoxycinnoline] |
|  | lack of significant activity | good activity | COc1cc2c(Nc3cc(O)c(C)cc3F)cnnc2cc1OCc1csc(C)n1 [4-(2-fluoro-5-hydroxy-4-methylanilino)-6-methoxy-7-[(2-methylthiazol-4-yl)methoxy]cinnoline] |
| 283 to 290 |  |  | COCCOc1cc2nncc(Nc3cc(O)c(C)cc3F)c2cc1OC (as salt: hydrochloride) [Example 11, 4-(2-fluoro-5-hydroxy-4-methylanilino)-6-methoxy-7-(2-methoxyethoxy)cinnoline] |
| 240 to 244 |  |  | COc1cc2nncc(Nc3ccc(C)c(O)c3)c2cc1OC [Example 1, 4-(3-hydroxy-4-methylanilino)-6,7-dimethoxycinnoline] |
| 215 to 221 |  |  | COc1cc2c(Nc3cc(O)c(C)cc3F)cnnc2cc1OCc1nccn1C.Cl |
| 243 to 251 |  |  | COc1cc2c(Nc3cc(O)c(Cl)cc3F)cnnc2cc1OCc1ccncc1 (as salt: hydrochloride) [Example 10, 4-(4-chloro-2-fluoro-5-hydroxyanilino)-6-methoxy-7-(4-pyridylmethoxy)cinnoline] |
| 244 to 252 |  |  | COc1cc2c(Nc3cc(O)c(C)cc3F)cnnc2cc1OCc1ccncc1.Cl |
| 278 to 281 |  |  | COCCOc1cc2nncc(Nc3ccc(Br)cc3F)c2cc1OC (as salt: hydrochloride) [Example 5, 4-(4-bromo-2-fluoroanilino)-6-methoxy-7-(2-methoxyethoxy)cinnoline] |
| 255 to 256 |  |  | COc1cc2nncc(Nc3cc(O)c(Cl)cc3F)c2cc1OC (as salt: hydrochloride) [Example 22, 4-(4-chloro-2-fluoro-5-hydroxyanilino)-6,7-dimethoxycinnoline] |
| 270 to 275 |  |  | COc1ccc2c(Nc3ccc(C)c(O)c3)cnnc2c1 (as salt: hydrochloride) [Example 14, 4-(3-hydroxy-4-methylanilino)-7-methoxycinnoline] |

| SMILES | melting point [°C] | activity against epidermal growth factor (EGF) receptor tyrosine kinase [1] | activity against VEGF receptor tyrosine kinase [2] |
| --- | --- | --- | --- |
| COc1cc2c(Nc3cc(OC(C)=O)c(Cl)cc3F)cnnc2cc1OCc1ccccc1 (as salt: hydrochloride) [Example 7, 4-(5-acetoxy-4-chloro-2-fluoroanilino)-7-benzyloxy-6-methoxycinnoline] | 240 to 247 |  |  |
